Consider 13 compounds from ChEMBL document CHEMBL3045848, “Microwave-assisted solvent-free synthesis of biologically active novel heterocycles from 3-formylchromones” (2011).

Activity calls are given as the source filed them. The rule behind the calls is not given here.

The subject of test [1] is Staphylococcus aureus. Description: Antibacterial activity against Staphylococcus aureus SA 22 at 100 ug/ml after 24 hr by filter paper disk method. The class given is functional. The note with it: for zone of inhibition at 100 µg/mL: SA 22, 24 h, read-out: DIZ.
The test system of test [2] is Aspergillus niger. Description: Antifungal activity against Aspergillus niger at 100 ug/ml after 72 hr. The note with it: for zone of inhibition at 100 µg/mL: read-out: DIZ. The class given is functional.
Test [3] concerns Bacillus subtilis. Description: Antibacterial activity against Bacillus subtilis MTCC 121 at 100 ug/ml after 24 hr by filter paper disk method. The class given is functional. The note with it: for zone of inhibition at 100 µg/mL: MTCC 121, 24 h, read-out: DIZ.
Test [4] relates to Candida albicans. Description: Antifungal activity against Candida albicans IOA-109 at 100 ug/ml after 18 to 48 hr. The class given is functional. The note with it: for zone of inhibition at 100 µg/mL: read-out: DIZ.
The subject of test [5] is Salmonella typhimurium. Description: Antibacterial activity against Salmonella enterica subsp. enterica serovar Typhimurium MTCC 98 at 100 ug/ml after 24 hr by filter paper disk method. In kind it is functional. Conditions: for zone of inhibition at 100 µg/mL: MTCC 98, 24 h, read-out: DIZ.
In test [6] the test system is Aspergillus fumigatus. As to the kind of experiment: Antifungal activity against Aspergillus fumigatus at 100 ug/ml after 72 hr. In kind it is functional. The note with it: for zone of inhibition at 100 µg/mL: read-out: DIZ.
Test [7] concerns Escherichia coli. As to the kind of experiment: Antibacterial activity against Escherichia coli K-12 at 100 ug/ml after 24 hr by filter paper disk method. The class given is functional. The note with it: for zone of inhibition at 100 µg/mL: K-12, 24 h, read-out: DIZ.
Test [8] concerns Bacillus subtilis. As to the kind of experiment: Antibacterial activity against Bacillus subtilis MTCC 121 at 30 ug/disk after 24 hr by filter paper disk method. In kind it is functional. The note with it: MTCC 121, 24 h, read-out: DIZ.
For test [9], the system named is Salmonella typhimurium. As to the kind of experiment: Antibacterial activity against Salmonella enterica subsp. enterica serovar Typhimurium MTCC 98 at 30 ug/disc after 24 hr by filter paper disk method. The class given is functional. Conditions: MTCC 98, 24 h, read-out: DIZ.
Test [10] relates to Escherichia coli. As to the kind of experiment: Antibacterial activity against Escherichia coli K-12 at 30 ug/disc after 24 hr by filter paper disk method. The class given is functional. The note with it: K-12, 24 h, read-out: DIZ.
The test system of test [11] is Staphylococcus aureus. Description: Antibacterial activity against Staphylococcus aureus SA 22 at 30 ug/disc after 24 hr by filter paper disk method. The class given is functional. Conditions: SA 22, 24 h, read-out: DIZ.
In test [12] the test system is Aspergillus fumigatus. Description: Antifungal activity against Aspergillus fumigatus at 30 ug/disk after 72 hr. The class given is functional, organism-based.
Test [13] deals with Aspergillus niger. Description: Antifungal activity against Aspergillus niger at 30 ug/disk after 72 hr. In kind it is functional, organism-based.

Turning to `CN1C(=O)C(C2=NC(=O)NC(c3coc4ccccc4c3=O)C2)C(=O)N(C)C1=O` (stereo not given), the zone of inhibition at 100 µg/mL came out at 8 mm in test [1], 11 mm in [5] and 15 mm in test [7]. In addition, the “diameter of the inhibition zone (DIZ)” value in test [2], in test [3], in test [4] and in test [6] was “inactive” in each case.

As for `CN1C(=O)C(C2=NN(c3ccccc3)C(c3coc4ccccc4c3=O)C2)C(=O)N(C)C1=O` (stereo not given), the “diameter of the inhibition zone (DIZ)” value in [1], in [2] and in test [3] was “inactive” throughout. Further, the zone of inhibition at 100 µg/mL in test [4] amounted to 15 mm; in test [5], 12 mm; in test [6] it was 12 mm; in [7], 8 mm.

Turning to `CN1C(=O)C(C(=O)C(Br)C(Br)c2coc3ccccc3c2=O)C(=O)N(C)C1=O` (stereo not given), the zone of inhibition at 100 µg/mL in [1] worked out at 8 mm; in [4], 15 mm; in [5], 16 mm; in test [7] it was 14 mm. Besides, the “diameter of the inhibition zone (DIZ)” value in test [2], in [3] and in test [6] was “inactive” each time.

Take `Cc1ccc2occ(/C=C/C(=O)C3C(=O)N(C)C(=O)N(C)C3=O)c(=O)c2c1`: the zone of inhibition at 100 µg/mL in [1] stood at 12 mm; in test [2], 12 mm; in test [3], 16 mm; in test [4], 12 mm; in test [5], 12 mm; in test [6], 14 mm. Also, the zone of inhibition at 100 µg/mL in test [7] turned out to be 20 mm.

Consider `O=C(N[C@H](CO)[C@H](O)c1ccc([N+](=O)[O-])cc1)C(Cl)Cl` [CHLORAMPHENICOL], for which the zone of inhibition at 30 µg/disc in test [8] worked out at 24 mm; in test [9], 20 mm; in test [10], 25 mm; in test [11], 26 mm. The “diameter of the inhibition zone (DIZ)” value in [2], in test [4] and in [6] was “inactive” in each case.

In the case of `Cc1ccc2occ(C(Br)C(Br)C(=O)C3C(=O)N(C)C(=O)N(C)C3=O)c(=O)c2c1` (stereo not given), the zone of inhibition at 100 µg/mL in test [1] was 12 mm; in [4], 17 mm; in test [5], 10 mm; in [7], 15 mm. Also, the “diameter of the inhibition zone (DIZ)” value in test [2], in test [3] and in [6] was “inactive” throughout.

As for `Cc1ccc2occ(C3CC(C4C(=O)N(C)C(=O)N(C)C4=O)=NN3c3ccccc3)c(=O)c2c1` (stereo not given), the “diameter of the inhibition zone (DIZ)” value in test [1], in test [2], in [3], in test [6] and in [7] was “inactive” each time. Moreover, the zone of inhibition at 100 µg/mL in test [4] worked out at 15 mm; in test [5], 19 mm.

In the case of `CN1C(=O)C(C2=NNC(c3coc4ccccc4c3=O)C2)C(=O)N(C)C1=O` (stereo not given), the zone of inhibition at 100 µg/mL came out at 16 mm in [1]; 8 mm in test [2]; 13 mm in test [3]; 14 mm in test [4]; 12 mm in [5]; 14 mm in test [6]. The zone of inhibition at 100 µg/mL in test [7] was determined as 15 mm.

As to `Cc1ccc2occ(C3CC(C4C(=O)N(C)C(=O)N(C)C4=O)=NN3)c(=O)c2c1` (stereo not given), the zone of inhibition at 100 µg/mL stood at 11 mm in test [1]; 13 mm in test [3]; 17 mm in [4]; 10 mm in [5]; 10 mm in test [6]; 12 mm in test [7]. Further, in test [2], the “diameter of the inhibition zone (DIZ)” value is “inactive”.

Consider `CN1C(=O)C(C(=O)/C=C/c2coc3ccccc3c2=O)C(=O)N(C)C1=O`, for which the zone of inhibition at 100 µg/mL in [1] was 15 mm; in test [2], 8 mm; in test [3], 20 mm; in test [4], 16 mm; in [5] it was 16 mm; in test [6] it was 10 mm. Further, the zone of inhibition at 100 µg/mL in test [7] came to 20 mm.

As for `CN1C(=O)C(C2=NN(c3nc4ccccc4s3)C(c3coc4ccccc4c3=O)C2)C(=O)N(C)C1=O` (stereo not given), the zone of inhibition at 100 µg/mL was determined as 13 mm in test [1]; 14 mm in [2]; 10 mm in test [3]; 14 mm in [4]; 9 mm in test [5]; 18 mm in test [7]. Moreover, the “diameter of the inhibition zone (DIZ)” value in [6] was “inactive”.

Take `CN1C(=O)C(c2cc(-c3coc4ccccc4c3=O)[nH]n2)C(=O)N(C)C1=O`: the zone of inhibition at 100 µg/mL was found to be 14 mm in test [1], 12 mm in test [3], 12 mm in test [5] and 12 mm in [7]. Moreover, the “diameter of the inhibition zone (DIZ)” value in test [2], in test [4] and in test [6] was “inactive” throughout.

As for NYSTATIN, the “diameter of the inhibition zone (DIZ)” value in test [1], in test [3], in test [5] and in test [7] was “inactive” throughout. The inhibition zone (IZ) in test [12] and in test [13] was 18 mm throughout.
